Earlier results as cited in article PMC5198968 (Cancer Science, 2016).

System: patients with advanced solid tumors
Conditions: phase I studies in advanced solid tumors; cited from earlier work

Structure (SMILES): COC(=O)c1ccc2c(c1)NC(=O)/C2=C(\Nc1ccc(N(C)C(=O)CN2CCN(C)CC2)cc1)c1ccccc1 [nintedanib]
- Primary DLT: elevated liver enzymes
